Reference: PubChem BioAssay AID1963961 (Molecular Pharmacology Branch, DTP, NCI, 2024)
Blank lines part the entries; values can stand above or below the compound they belong to.

Tested on: K98450-129-R-PDC multicell spheroids, viability
Assay: Anticancer human tumor K98450-129-R-PDC patient-derived colon adenocarcinoma cell line growth inhibition [PI3K]
Conditions: for viability, T/C: stronger effect = lower value
How it was run: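 Stroma-containing spheroids: tumor line, pooled-donor HUVEC, hMSC. Treatments: targeted agents with PI3K inhibitors. Dosing: clinically relevant, half-log spacing, 10 microM ceiling without known Cmax. Read-out: cell viability.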

[1] = curve of first compound, second compound 0.0316 µM
[2] = curve of first compound, second compound 0.1 µM
[3] = curve of first compound, second compound 0.316 µM
[4] = curve of first compound, second compound 1 µM
[5] = curve of first compound, second compound 3.16 µM
[6] = curve of first compound, second compound 10 µM
[7] = second compound 0.0316 µM, first compound 0.0316 µM
[8] = second compound 0.0316 µM, first compound 0.1 µM
[9] = second compound 0.0316 µM, first compound 0.316 µM
[10] = second compound 0.0316 µM, first compound 1 µM
[11] = second compound 0.0316 µM, first compound 3.16 µM
[12] = second compound 0.0316 µM, first compound 10 µM
[13] = second compound 0.1 µM, first compound 0.0316 µM
[14] = second compound 0.1 µM, first compound 0.1 µM
[15] = second compound 0.1 µM, first compound 0.316 µM
[16] = second compound 0.1 µM, first compound 1 µM
[17] = second compound 0.1 µM, first compound 3.16 µM
[18] = second compound 0.1 µM, first compound 10 µM
[19] = second compound 0.316 µM, first compound 0.0316 µM
[20] = second compound 0.316 µM, first compound 0.1 µM
[21] = second compound 0.316 µM, first compound 0.316 µM
[22] = second compound 0.316 µM, first compound 1 µM
[23] = second compound 0.316 µM, first compound 3.16 µM
[24] = second compound 0.316 µM, first compound 10 µM
[25] = second compound 1 µM, first compound 0.0316 µM
[26] = second compound 1 µM, first compound 0.1 µM
[27] = second compound 1 µM, first compound 0.316 µM
[28] = second compound 1 µM, first compound 1 µM
[29] = second compound 1 µM, first compound 3.16 µM
[30] = second compound 1 µM, first compound 10 µM
[31] = second compound 3.16 µM, first compound 0.0316 µM
[32] = second compound 3.16 µM, first compound 0.1 µM
[33] = second compound 3.16 µM, first compound 0.316 µM
[34] = second compound 3.16 µM, first compound 1 µM
[35] = second compound 3.16 µM, first compound 3.16 µM
[36] = second compound 3.16 µM, first compound 10 µM
[37] = second compound 10 µM, first compound 0.0316 µM
[38] = second compound 10 µM, first compound 0.1 µM
[39] = second compound 10 µM, first compound 0.316 µM
[40] = second compound 10 µM, first compound 1 µM
[41] = second compound 10 µM, first compound 3.16 µM
[42] = second compound 10 µM, first compound 10 µM
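Note: spheroids exposed to agents for seven days before read-out.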

IC50 [1]: 5.26 µM | IC50 [2]: 5.65 µM | IC50 [3]: 5.38 µM | IC50 [4]: 5.29 µM | IC50 [5]: 5.48 µM | IC50 [6]: 5.13 µM
SMILES: CC1(C)CCC(CN2CCN(c3ccc(C(=O)NS(=O)(=O)c4ccc(NCC5CCOCC5)c([N+](=O)[O-])c4)c(Oc4cnc5[nH]ccc5c4)c3)CC2)=C(c2ccc(Cl)cc2)C1 + CC(Nc1ncnc2nc[nH]c12)c1cc2cccc(Cl)c2c(=O)n1-c1ccccc1
viability, T/C [7]: 96.2% | viability, T/C [8]: 94.7% | viability, T/C [9]: 96.2% | viability, T/C [10]: 118% | viability, T/C [11]: 84.8% | viability, T/C [12]: 6.25% | viability, T/C [13]: 100% | viability, T/C [14]: 104% | viability, T/C [15]: 105% | viability, T/C [16]: 100% | viability, T/C [17]: 97.4% | viability, T/C [18]: 3.46% | viability, T/C [19]: 135% | viability, T/C [20]: 104% | viability, T/C [21]: 94.9% | viability, T/C [22]: 98.6% | viability, T/C [23]: 94.4% | viability, T/C [24]: 3.48% | viability, T/C [25]: 87.8% | viability, T/C [26]: 116% | viability, T/C [27]: 89% | viability, T/C [28]: 88.5% | viability, T/C [29]: 87.5% | viability, T/C [30]: 3.81% | viability, T/C [31]: 85.8% | viability, T/C [32]: 105% | viability, T/C [33]: 90.4% | viability, T/C [34]: 86.1% | viability, T/C [35]: 95.8% | viability, T/C [36]: 3.31% | viability, T/C [37]: 86.4% | viability, T/C [38]: 87.6% | viability, T/C [39]: 82.9% | viability, T/C [40]: 75.3% | viability, T/C [41]: 88.1% | viability, T/C [42]: 3.12%

IC50 [1]: 6.04 µM | IC50 [2]: 6 µM | IC50 [3]: 5.81 µM | IC50 [4]: 5.69 µM | IC50 [5]: 5.33 µM | IC50 [6]: 4.79 µM
SMILES: CCCS(=O)(=O)Nc1ccc(F)c(C(=O)c2c[nH]c3ncc(-c4ccc(Cl)cc4)cc23)c1F + Cc1nc(NC(=O)N2CCCC2C(N)=O)sc1-c1ccnc(C(C)(C)C(F)(F)F)c1
viability, T/C [7]: 106% | viability, T/C [8]: 98.7% | viability, T/C [9]: 101% | viability, T/C [10]: 101% | viability, T/C [11]: 124% | viability, T/C [12]: 6.29% | viability, T/C [13]: 108% | viability, T/C [14]: 96.9% | viability, T/C [15]: 105% | viability, T/C [16]: 103% | viability, T/C [17]: 118% | viability, T/C [18]: 5.28% | viability, T/C [19]: 95.8% | viability, T/C [20]: 95.8% | viability, T/C [21]: 94.1% | viability, T/C [22]: 92.8% | viability, T/C [23]: 120% | viability, T/C [24]: 5.66% | viability, T/C [25]: 89.2% | viability, T/C [26]: 90.9% | viability, T/C [27]: 94.3% | viability, T/C [28]: 92.9% | viability, T/C [29]: 107% | viability, T/C [30]: 6.99% | viability, T/C [31]: 84% | viability, T/C [32]: 85.8% | viability, T/C [33]: 84.5% | viability, T/C [34]: 89% | viability, T/C [35]: 88.8% | viability, T/C [36]: 6.1% | viability, T/C [37]: 70.5% | viability, T/C [38]: 72.8% | viability, T/C [39]: 78% | viability, T/C [40]: 71.1% | viability, T/C [41]: 76.9% | viability, T/C [42]: 7.67%

IC50 (compound alone, run of 04/24/2023): > 10 µM
SMILES: Cc1nc(NC(=O)N2CCCC2C(N)=O)sc1-c1ccnc(C(C)(C)C(F)(F)F)c1 (stereo unspecified)
viability, T/C (compound 0.0316 µM): 104% [middle of 8 runs] | viability, T/C (compound 0.1 µM): 103% [middle of 8 runs] | viability, T/C (compound 0.316 µM): 102% [middle of 8 runs] | viability, T/C (compound 1 µM): 99.1% [middle of 8 runs] | viability, T/C (compound 3.16 µM): 93.5% [middle of 8 runs] | viability, T/C (compound 10 µM): 75.9% [middle of 8 runs]
